# Data from patent US12157730B2, “Heteroaryl derivative, method for producing same, and pharmaceutical composition comprising same as effective component” (VORONOI INC., priority 2019, dated 2024).
# Biological target: T1, Ba/F3 cell EGFR Exon20 ins NPH (Homo sapiens, UniProt P00533, INS773NPH)
# T1 construct: expressed in transfected cells; host or cells: Ba/F3
# Experiment: Ba/F3 cell proliferation suppression, EGFR Exon20 ins NPH
# Type: cell-based
# Settings: GI50 class; Ba/F3 cell line with NPH inserted at Exon20 of EGFR; 72 hours
# Summary of the method: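 72 h compound exposure, 0.3 nM–50 um (12 points, 3:1 dilution in DMSO); viability by CellTiter-Glo luminescence. Ba/F3 medium: RPMI-1640, 10% FBS, 5 ng/ml IL-3, 1 ug/ml puromycin for transduced cells. GI50 vs control, n=3.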
row,SMILES,Ba/F3 (NPH) Activity
1,"C=CC(=O)Nc1cc(Nc2cc(N3OCC[C@@H]3Cc3cc(F)cc(F)c3)ncn2)c(OC)cc1N1CCC(N2C[C@H]3C[C@@H]2CO3)CC1 [compound 1034, N-(2-(4-((1R,4R)-2-oxa-5-azabicyclo [2.2.1]heptane-5-yl)piperidine-1-yl)-5-((6-((S)-3-(3,5-difluorobenzyl)isoxazolidine-2-yl)pyrimidine-4-yl)amino)-4-methoxyphenyl) acrylamide]",A (GI50 < 50 nM)
2,"C=CC(=O)Nc1cc(Nc2cc(N3OCC[C@@H]3c3cccc4ccccc34)ncn2)c(OC)cc1N1CCC(N2CCO[C@H](C)C2)CC1 [compound 536, N-(4-methoxy-2-(4-((R)-2-methylmorpholino)piperidine-1-yl)-5-((6-((R)-3-(naphthalene-1-yl)isoxazolidine-2-yl)pyrimidine-4-yl)amino)phenyl) acrylamide]",A (GI50 < 50 nM)
3,"C=CC(=O)Nc1cc(Nc2cc(N3OCC[C@@H]3c3cccc4ccccc34)ncn2)c(OC)cc1N1CCC(N2CCO[C@@H](C)C2)CC1 [compound 535, N-(4-methoxy-2-(4-((S)-2-methylmorpholino)piperidine-1-yl)-5-((6-((R)-3-(naphthalene-1-yl)isoxazolidine-2-yl)pyrimidine-4-yl)amino)phenyl)acrylamide]",A (GI50 < 50 nM)
4,"C=CC(=O)Nc1cc(Nc2cc(N3OCC[C@@H]3c3cc(F)cc(F)c3)ncn2)c(OC)cc1N1CCC(N2CCC3(CC2)CC3)CC1 [compound 700, N-(2-(4-(6-azaspiro[2.5]octan-6-yl)piperidine-1-yl)-5-((6-((R)-3-(3,5-difluorophenyl)isoxazolidine-2-yl)pyrimidine-4-yl)amino)-4-methoxyphenyl) acrylamide]",A (GI50 < 50 nM)
5,"C=CC(=O)Nc1cc(Nc2cc(N3OCC[C@@H]3c3ccc(F)c(F)c3)ncn2)c(OC)cc1N1CC[C@H](N2CCOCC2)C1 [compound 579, N-(5-((6-((R)-3-(3,4-difluorophenyl)isoxazolidine-2-yl)pyrimidine-4-yl)amino)-4-methoxy-2-((S)-3-morpholinopyrolidine-1-yl)phenyl)acrylamide]",C (500 nM ≤ GI50 < 5000 nM)
6,"C=CC(=O)Nc1cc(Nc2cc(N3OCC[C@@H]3c3ccc(Cl)c(F)c3)ncn2)c(OC)cc1N(C)CCOC [compound 853, N-(5-((6-((R)-3-(4-chloro-3-fluorophenyl)isoxazolidine-2-yl)pyrimidine-4-yl)amino)-4-methoxy-2-((2-methoxyethyl)(methyl)amino)phenyl) acrylamide]",B (50 nM ≤ GI50 < 500 nM)
7,"C=CC(=O)Nc1cc(Nc2cc(N3OCC[C@@H]3c3cccc(Cl)c3C)ncn2)c(OC)cc1N1CCC(N2CCO[C@H](C)C2)CC1 [compound 530, N-(5-((6-((R)-3-(3-chloro-2-methylphenyl)isoxazolidine-2-yl)pyrimidine-4-yl)amino)-4-methoxy-2-(4-((R)-2-methylmorpholino)piperidine-1-yl)phenyl) acrylamide]",A (GI50 < 50 nM)
8,"C=CC(=O)Nc1cc(Nc2cc(N3OCC[C@@H]3c3ccc(C)nc3)ncn2)c(OC)cc1N1CC[C@@H](N(C)C)C1 [Example 221, N-(2-((R)-3-(dimethylamino)pyrolidine-1-yl)-4-methoxy-5-((6-((R)-3-(6-methylpyridine-3-yl)isoxazolidine-2-yl)pyrimidine-4-yl)amino)phenyl) acrylamide]",B (50 nM ≤ GI50 < 500 nM)
9,"C=CC(=O)Nc1cc(Nc2cc(N3OCC[C@@H]3Cc3cccnc3)ncn2)c(OC)cc1N1CCC(N2CCN(C3CC3)[C@@H](C)C2)CC1 [compound 1057, N-(2-(4-((S)-4-cyclopropyl-3-methylpiperazine-1-yl)piperidine-1-yl)-4-methoxy-5-((6-((S)-3-(pyridine-3-ylmethyl)isoxazolidine-2-yl)pyrimidine-4-yl)amino)phenyl)acrylamide]",B (50 nM ≤ GI50 < 500 nM)
10,"C=CC(=O)Nc1cc(Nc2cc(N3OCC[C@@H]3c3cccc(Cl)c3F)ncn2)c(OC)cc1N(C)CCN(C)C [compound 746, N-(5-((6-((R)-3-(3-chloro-2-fluorophenyl)isoxazolidine-2-yl)pyrimidine-4-yl)amino)-2-((2-(dimethylamino)ethyl)(methyl)amino)-4-methoxyphenyl) acrylamide]",A (GI50 < 50 nM)
11,"C=CC(=O)Nc1cc(Nc2cc(N3OCC[C@@H]3c3cccc(Cl)c3F)ncn2)c(OC)cc1N1CCC(N2CCN(CC3CC3)CC2)CC1 [Example 96, N-(5-((6-((R)-3-(3-chloro-2-fluorophenyl)isoxazolidine-2-yl)pyrimidine-4-yl)amino)-2-(4-(4-(cyclopropylmethyl)piperazine-1-yl)piperidine-1-yl)-4-methoxyphenyl) acrylamide]",A (GI50 < 50 nM)
12,"C=CC(=O)Nc1cc(Nc2cc(N3OCC[C@@H]3c3cccc(OC)c3)ncn2)c(OC)cc1N1CCC(N2C[C@H]3C[C@@H]2CO3)CC1 [compound 726, N-(2-(4-((1R,4R)-2-oxa-5-azabicyclo [2.2.1]heptane-5-yl)piperidine-1-yl)-4-methoxy-5-((6-((R)-3-(3-methoxyphenyl)isoxazolidine-2-yl)pyrimidine-4-yl)amino)phenyl)acrylamide]",A (GI50 < 50 nM)
13,"C=CC(=O)Nc1cc(Nc2cc(N3OCC[C@@H]3Cc3cccc(Cl)c3Cl)ncn2)c(OC)cc1N1CCC(N2CCN(C3CC3)CC2)CC1 [compound 1009, N-(2-(4-(4-cyclopropylpiperazine-1-yl)piperidine-1-yl)-5-((6-((S)-3-(2,3-dichlorobenzyl)isoxazolidine-2-yl)pyrimidine-4-yl)amino)-4-methoxyphenyl) acrylamide]",A (GI50 < 50 nM)
14,"C=CC(=O)Nc1cc(Nc2cc(N3OCC[C@@H]3c3cc(F)cc(F)c3)ncn2)c(OC)cc1N1CCC(N2CCN(C)C[C@@H]2C)CC1 [compound 762, N-(5-((6-((R)-3-(3,5-difluorophenyl)isoxazolidine-2-yl)pyrimidine-4-yl)amino)-2-(4-((S)-2,4-dimethylpiperazine-1-yl)piperidine-1-yl)-4-methoxyphenyl) acrylamide]",A (GI50 < 50 nM)
15,"C=CC(=O)Nc1cc(Nc2cc(N3OCC[C@@H]3c3ccc(F)c(F)c3F)ncn2)c(OC)cc1N1CC[C@@H](N2CCOCC2)C1 [compound 623, N-(4-methoxy-2-((R)-3-morpholinopyrolidine-1-yl)-5-((6-((R)-3-(2,3,4-trifluorophenyl)isoxazolidine-2-yl)pyrimidine-4-yl)amino)phenyl)acrylamide]",C (500 nM ≤ GI50 < 5000 nM)
16,"C=CC(=O)Nc1cc(Nc2cc(N3OCC[C@@H]3c3cccc(Cl)c3Cl)ncn2)c(OC)cc1N1CCC(N2CCN(CC3CC3)CC2)CC1 [Example 204, N-(2-(4-(4-(cyclopropylmethyl)piperazine-1-yl)piperidine-1-yl)-5-((6-((R)-3-(2,3-dichlorophenyl)isoxazolidine-2-yl)pyrimidine-4-yl)amino)-4-methoxyphenyl) acrylamide]",A (GI50 < 50 nM)
17,"C=CCN1CCN(C2CCN(c3cc(OC)c(Nc4cc(N5OCC[C@@H]5c5cccc(OC)c5)ncn4)cc3NC(=O)C=C)CC2)CC1 [Example 215, N-(2-(4-(4-allylpiperazine-1-yl)piperidine-1-yl)-4-methoxy-5-((6-((R)-3-(3-methoxyphenyl)isoxazolidine-2-yl)pyrimidine-4-yl)amino)phenyl) acrylamide]",C (500 nM ≤ GI50 < 5000 nM)
18,"C=CC(=O)Nc1cc(Nc2cc(N3OCC[C@@H]3c3cc(F)ccc3F)ncn2)c(OC)cc1N1CCC(N2CCN(C(C)=O)CC2)CC1 [compound 815, N-(2-(4-(4-acetylpiperazine-1-yl)piperidine-1-yl)-5-((6-((R)-3-(2,5-difluorophenyl)isoxazolidine-2-yl)pyrimidine-4-yl)amino)-4-methoxyphenyl) acrylamide]",A (GI50 < 50 nM)
19,"C=CC(=O)Nc1cc(Nc2cc(N3OCC[C@@H]3c3ccc(Cl)cc3F)ncn2)c(OC)cc1N1CCC(N(C)C)CC1 [compound 403, N-(5-((6-((R)-3-(4-chloro-2-fluorophenyl)isoxazolidine-2-yl)pyrimidine-4-yl)amino)-2-(4-(dimethylamino)piperidine-1-yl)-4-methoxyphenyl) acrylamide]",A (GI50 < 50 nM)
20,"C=CC(=O)Nc1cc(Nc2cc(N3OCC[C@@H]3Cc3cccc(Cl)c3F)ncn2)c(OC)cc1N1CCC(N2CCN(C3CC3)[C@@H](C)C2)CC1 [compound 1018, N-(5-((6-((S)-3-(3-chloro-2-fluorobenzyl)isoxazolidine-2-yl)pyrimidine-4-yl)amino)-2-(4-((S)-4-cyclopropyl-3-methylpiperazine-1-yl)piperidine-1-yl)-4-methoxyphenyl) acrylamide]",A (GI50 < 50 nM)
21,"C=CC(=O)Nc1cc(Nc2cc(N3OCC[C@@H]3c3cc(F)cc(F)c3)ncn2)c(OC)cc1N1CCN(C)C[C@@H]1C [compound 919, N-(5-((6-((R)-3-(3,5-difluorophenyl)isoxazolidine-2-yl)pyrimidine-4-yl)amino)-2-((S)-2,4-dimethylpiperazine-1-yl)-4-methoxyphenyl) acrylamide]",A (GI50 < 50 nM)
22,"C=CC(=O)Nc1cc(Nc2cc(N3OCC[C@@H]3c3cc(F)cc(F)c3)ncn2)c(OC)cc1N1C[C@@H]2CCN(C)[C@@H]2C1 [compound 891, N-(5-((6-((R)-3-(3,5-difluorophenyl)isoxazolidine-2-yl)pyrimidine-4-yl)amino)-4-methoxy-2-((3aS,6aS)-1-methylhexahydropyrrolo [3,4-b]pyrrole-5(1H)-yl)phenyl) acrylamide]",A (GI50 < 50 nM)
23,"C=CC(=O)Nc1cc(Nc2cc(N3OCC[C@H]3Cc3cccnc3)ncn2)c(OC)cc1N1CCC(N2C[C@H]3C[C@@H]2CO3)CC1 [compound 990, N-(2-(4-((1R,4R)-2-oxa-5-azabicyclo [2.2.1]heptane-5-yl)piperidine-1-yl)-4-methoxy-5-((6-((R)-3-(pyridine-3-ylmethyl)isoxazolidine-2-yl)pyrimidine-4-yl)amino)phenyl)acrylamide]",B (50 nM ≤ GI50 < 500 nM)
